In EP0588622B1, “Bleach composition” (UNILEVER PLC, priority 1992, dated 1994):
Where two headings read alike, the source gives them in different places.

What was measured:
[1] = peroxyacid solution 0.000525 moles/l plus EDTA, 22-24°C, 30 minutes
[2] = pKa determination by sodium hydroxide titration of peroxyacid solution
[3] = Stain bleaching, visual assessment of stained cloths after tergotometer wash (Example V); conditions: for Ranking: score 1 smallest, 4 greatest cleaning benefit, peroxyacid 9.2x10^-4 mol l^-1, 40°C, 30 minutes
[4] = Tea stain bleaching, difference in reflectance at 460 nm before and after washing (Example VI); conditions: 40°C, 30 minutes
Protocol: The stain bleaching performance was measured by determining the difference ([…]) in %reflectance of cloths at 460 nm before and after washing. […] This was carried out in a tergotometer at 40°C, washing for 30 minutes. Cloths were washed in 450 ml 18°FH water with 1.8 g NSPA base powder and peroxyacid included at 9.2x10^-4 mol l^-1. Two series of experiments were carried out; one at pH 6 where the peracid is largely in its undissociated form and one above the peracid pKa, at pH 9. A stained piece of fabric measuring 8x8 cm was cut into four such that each quarter would be washed under one of each of the four experimental conditions. The method as in example V was used in determining the tea stain bleaching effect of sterically hindered hydrophobic peroxyacids, the differences being that 3 replicates were used, the reflectance was measured before and after washing, tests were done over a pH range of from 6 to 10 and 4 g/l NSPA base powder was used.

[5] = Dye damage in tergotometer wash at pH 9 (Example VII), diacetate; conditions: diacetate dyed with CI disperse 14; pH 9, 40°C, 30 minutes, peroxyacid 9.2x10^-4 mole/l
[6] = Dye damage in tergotometer wash at pH 9 (Example VII), triacetate; conditions: triacetate dyed with CI disperse 14; pH 9, 40°C, 30 minutes, peroxyacid 9.2x10^-4 mole/l
[7] = Dye damage in tergotometer wash at pH 9 (Example VII), nylon 6,6; conditions: nylon 6,6 dyed with CI disperse 14; pH 9, 40°C, 30 minutes, peroxyacid 9.2x10^-4 mole/l
[8] = Dye damage in tergotometer wash with detergent base at pH 6 to 10 (Example III); conditions: peroxyacid 9.2x10^-4 mole/l, detergent base 4 g/l, 40°C, 30 minutes

CCCCc1ccc(C(=O)OO)cc1 [p-bu^n perbenzoic, reference compound]
% dye damage [1]: 39.6% | pKa [2]: 8

O=C(OO)C12CC3CC(CC(C3)C1)C2 [Peradamantoic, Peradamantoic acid]
% dye damage [1]: 11.2% | Ranking ([3]; Washes at pH 9): 4 | Ranking ([3]; Washes pH 6): 4 | removal of the stain ([3]; black biro stain, both at pH 6 and 9): almost complete removal of the stain | TEA STAIN BLEACHING ΔR460NM ([4]; pH 6, 4 g/l NSPA base powder): 13.2 | TEA STAIN BLEACHING ΔR460NM ([4]; pH 7, 4 g/l NSPA base powder): 16.9 | TEA STAIN BLEACHING ΔR460NM ([4]; pH 8, 4 g/l NSPA base powder): 17.3 | TEA STAIN BLEACHING ΔR460NM ([4]; pH 9, 4 g/l NSPA base powder): 13.1 | TEA STAIN BLEACHING ΔR460NM ([4]; pH 10, 4 g/l NSPA base powder): 3.6 | pKa [2]: 7.95

CC1C2CCC(C2)C1C(=O)OO (stereo not drawn) [Trans-3-Methyl norbornane-endo-2-percaboxylic]
% dye damage [1]: 8.2% | pKa [2]: 8.15

CC1(C(=O)OO)CC2CCC1C2 (stereo not drawn) [2 methylnorbornane-endo-2-percaboxylic]
% dye damage [1]: 5.6% | pKa [2]: 8.2

CC(CC(=O)OO)CC(C)(C)C (centres unmarked) [iso-pernonanoic, peroxy-3,5,5-trimethylhexanoic acid]
% dye damage [5]: 25% | pKa [2]: 8.1 | % dye damage [6]: 23% | % dye damage [7]: 11%

O=C(OO)C1CC2CCC1C2 (stereo not drawn) [Norbornane-endo-2-Percarboxylic]
% dye damage [1]: 7.0% | pKa [2]: 8.15

CC(C)(C)c1ccc(C(=O)OO)cc1 [p-bu^t perbenzoic, p-t-butylperbenzoic acid]
% dye damage [1]: 19.6% | pKa (physchem): 7.98

O=C(OO)C1CC2CCC1C2 (centres unmarked) [NBC, Norbornane 2-peroxyacid]
Ranking ([3]; Washes at pH 9): 2 | Ranking ([3]; Washes pH 6): 2

CCCCCCCCC(=O)OO [n-pernonanoic, n-pernonanoic acid]
% dye damage [5]: 82% | % DYE DAMAGE ([8]; pH 6): 70.4% | % DYE DAMAGE ([8]; pH 7): 67.9% | % DYE DAMAGE ([8]; pH 8): 63.7% | % DYE DAMAGE ([8]; pH 9): 37.2% | % DYE DAMAGE ([8]; pH 10): 15.0% | pKa [2]: 8.1 | % dye damage [6]: 85% | % dye damage [7]: 52%
